Measured values published in the supplement of paper PMC10307832.

How the values were obtained:
Assay in all cases: relative viability (nuclei count vs DMSO), 5 days (fraction); higher = more cells survive
[1] = compound: Cc1ccc(NC(=O)c2ccc(CN3CCN(C)CC3)cc2)cc1Nc1nc(-c2cccnc2)cs1 [Masitinib] + CS(=O)(=O)N1CCN(Cc2cc3nc(-c4cccc5[nH]ncc45)nc(N4CCOCC4)c3s2)CC1 [Pictilisib] (partner 1 µM)
Procedure, shortened: (§1)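 Five library-drug doses in √10 steps were combined with a fixed anchor-drug dose, or a single drug was given alone, by pin tool to lung cancer cell lines in 1536-well plates the day after seeding. Nuclei were stained and counted after 5 days. Relative viability is the nuclei count in treated wells over that in vehicle wells, taken as the median of duplicate plates.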

[2] = compound: Cc1ccc(NC(=O)c2ccc(CN3CCN(C)CC3)cc2)cc1Nc1nc(-c2cccnc2)cs1 [Masitinib] + O=C(c1cc(Cc2n[nH]c(=O)c3ccccc23)ccc1F)N1CCN(C(=O)C2CC2)CC1 [Olaparib] (partner 8 µM)
Procedure, shortened: as §1

[3] = compound: Cc1ccc(NC(=O)c2ccc(CN3CCN(C)CC3)cc2)cc1Nc1nc(-c2cccnc2)cs1 [Masitinib] + CC(=O)c1c(C)c2cnc(Nc3ccc(N4CCNCC4)cn3)nc2n(C2CCCC2)c1=O [Palbociclib] (partner 0.5 µM)
Procedure, shortened: as §1

[4] = compound: CC1=CC(=CC=C1)NC2=NC(=CS2)C3=CC=NC=C3 + CC(=O)c1c(C)c2cnc(Nc3ccc(N4CCNCC4)cn3)nc2n(C2CCCC2)c1=O [Palbociclib] (partner 0.5 µM)
Procedure, shortened: as §1

Cell Line	relative viability ([1]; first compound 0.01 µM)	relative viability ([1]; first compound 0.03162 µM)	relative viability ([1]; first compound 0.1 µM)	relative viability ([1]; first compound 0.3162 µM)	relative viability ([1]; first compound 1 µM)	relative viability ([2]; first compound 0.01 µM)	relative viability ([2]; first compound 0.03162 µM)	relative viability ([2]; first compound 0.1 µM)	relative viability ([2]; first compound 0.3162 µM)	relative viability ([2]; first compound 1 µM)	relative viability ([3]; first compound 0.01 µM)	relative viability ([3]; first compound 0.03162 µM)	relative viability ([3]; first compound 0.1 µM)	relative viability ([3]; first compound 0.3162 µM)	relative viability ([3]; first compound 1 µM)	relative viability ([4]; first compound 0.08 µM)	relative viability ([4]; first compound 0.253 µM)	relative viability ([4]; first compound 0.8 µM)	relative viability ([4]; first compound 2.53 µM)	relative viability ([4]; first compound 8 µM)
NCI-H23	0.434	0.493	0.525	0.495	0.457	0.294	0.256	0.295	0.242	0.264	0.439	0.482	0.598	0.575	0.527	0.37	0.459	0.518	0.479	0.524
NCI-H322M	0.545	0.463	0.481	0.503	0.483	0.733	0.726	0.857	0.729	0.128	0.483	0.487	0.426	0.531	0.454	0.463	0.47	0.565	0.574	0.563
NCI-H358	0.328	0.319	0.34	0.394	0.296	0.549	0.621	0.603	0.604	0.607	0.123	0.138	0.15	0.133	0.136	0.132	0.15	0.151	0.144	0.129
NCI-H441	0.654	0.449	0.601	0.482	0.446	0.53	0.403	0.602	0.586	0.553	0.232	0.211	0.262	0.188	0.191	0.214	0.205	0.261	0.224	0.184
NCI-H460	0.587	0.26	0.415	0.254	0.321	0.38	0.381	0.436	0.463	0.415	0.0985	0.105	0.14	0.071	0.126	0.0801	0.0813	0.0708	0.0785	0.086
NCI-H520	0.336		0.366	0.313	0.271	0.305	0.409	0.362	0.332	0.277	0.27	0.21	0.263	0.243	0.197	0.217	0.234	0.239	0.261	0.291
NCI-H647	0.424	0.356	0.44	0.333	0.321	0.572	0.408	0.789	0.596	0.642	0.419	0.369	0.49	0.325	0.375	0.379	0.262	0.369	0.442	0.365
NCI-H650	0.921	0.909	1.09	0.864	0.929	0.41	0.386	0.422	0.394	0.324	0.33	0.332	0.331	0.318	0.318	0.256	0.339	0.322	0.342	0.371
NCI-H661	0.439	0.356	0.511	0.371	0.346	0.722	0.779	0.802	0.731	0.711	0.331	0.374	0.363	0.372	0.377	0.433	0.395	0.391	0.386	0.351
NCI-H727	0.506	0.416	0.443	0.317	0.317	0.76	0.774	0.686	0.819	0.676	0.599	0.692	0.668	0.621	0.618	0.725		0.541		0.695
NCI-H838	0.477	0.387	0.512	0.396	0.432	0.835	0.739	0.83	0.638	0.832	0.205	0.182	0.22	0.192	0.244	0.22	0.205	0.207	0.217	0.179
NCI-H1355	0.454	0.264	0.418	0.331	0.441	0.727	0.665	0.754	0.521	0.761	0.37	0.601	0.4	0.292	0.343	0.35	0.282	0.27	0.285	0.284
NCI-H1395	0.695	0.577	0.645	0.565	0.58	0.473	0.465	0.471	0.422	0.432	0.593	0.653	0.643	0.562	0.595	0.577		0.546	0.556	0.606
NCI-H1437	0.432	0.421	0.403	0.421	0.382	0.623	0.603	0.668	0.616	0.61	0.25	0.32	0.248	0.302	0.305	0.316	0.331	0.301	0.23	0.289
NCI-H1650	0.53	0.501	0.583	0.548	0.535	0.675	0.711	0.751	0.614	0.884	0.242	0.321	0.254	0.298	0.376	0.278	0.281	0.449	0.235	0.239
NCI-H1651	0.529	0.585	0.543	0.622	0.505	0.155	0.216	0.177	0.181	0.169	0.388	0.505	0.419	0.535	0.523	0.492	0.486	0.507	0.523	0.543
NCI-H1666	0.393	0.382	0.474	0.246	0.346	0.736	0.716	0.724	0.695	0.73	0.665	0.63	0.696	0.628	0.617	0.664	0.631	0.546	0.584	0.617

Cell Line	relative viability ([1]; first compound 0.01 µM)	relative viability ([1]; first compound 0.03162 µM)	relative viability ([1]; first compound 0.1 µM)	relative viability ([1]; first compound 0.3162 µM)	relative viability ([1]; first compound 1 µM)	relative viability ([2]; first compound 0.01 µM)	relative viability ([2]; first compound 0.03162 µM)	relative viability ([2]; first compound 0.1 µM)	relative viability ([2]; first compound 0.3162 µM)	relative viability ([2]; first compound 1 µM)	relative viability ([3]; first compound 0.01 µM)	relative viability ([3]; first compound 0.03162 µM)	relative viability ([3]; first compound 0.1 µM)	relative viability ([3]; first compound 0.3162 µM)	relative viability ([3]; first compound 1 µM)	relative viability ([4]; first compound 0.08 µM)	relative viability ([4]; first compound 0.253 µM)	relative viability ([4]; first compound 0.8 µM)	relative viability ([4]; first compound 2.53 µM)	relative viability ([4]; first compound 8 µM)
NCI-H1734	0.441	0.459	0.532	0.412	0.395	0.557	0.564	0.623	0.618	0.6	0.362	0.327	0.393	0.394	0.335	0.352	0.315	0.344	0.347	0.359
NCI-H1755		0.387	0.402	0.482	0.423	0.769	0.832	0.893	0.849	0.755	0.428	0.474	0.448	0.491	0.402	0.432	0.429	0.412	0.442	0.393
NCI-H1792	0.277	0.209	0.288	0.197	0.225	0.528	0.257	0.303	0.377	0.396	0.572	0.448	0.701	0.611	0.611	0.596		0.614	0.624	0.672
NCI-H1793	0.455	0.318	0.427	0.381	0.338	0.893	0.777	1.04	1.08	0.768	0.282	0.279	0.348	0.303	0.259	0.269	0.305	0.297	0.261	0.336
NCI-H1915		0.97	0.664	0.853	0.908		0.289		0.254	0.238		0.518		0.536	0.642	0.545	0.47	0.53	0.524	0.492
NCI-H1944		0.334	0.352	0.317	0.345		0.344		0.364	0.374		0.295		0.312	0.307	0.288	0.307	0.298	0.299	0.292
NCI-H1975	0.288	0.305	0.331	0.224	0.289	0.79	0.727	0.78	0.642	0.839	0.424	0.517	0.468	0.399	0.587	0.497	0.416	0.51	0.374	0.241
NCI-H1993	0.859		1.05	0.778	0.825	1.13	0.876	1.19	1.1	1.01	0.674	0.527	0.536	0.516	0.654	0.594	0.604	0.476	0.554	0.533
NCI-H2009	0.641	0.87	0.756	0.923	0.793	0.733	0.546	0.818	0.702	0.635	0.207	0.214	0.236	0.17	0.204	0.251	0.309	0.28	0.279	0.23
NCI-H2023	0.225	0.248	0.286	0.191	0.243	0.63	0.422	0.458	0.427	0.44	0.311	0.385	0.323	0.259	0.331	0.408	0.428	0.424	0.355	0.112
NCI-H2085	0.522	0.455	0.469	0.396	0.595	0.729	0.805	0.798	0.815	0.728	0.432	0.493	0.486	0.491	0.459	0.464	0.463	0.475	0.47	0.349
NCI-H2087	0.894	0.859	0.837	0.93	0.805	0.73	0.583	0.63	0.523	0.7	0.211	0.221	0.234	0.198	0.237	0.186	0.245	0.227	0.238	0.221
NCI-H2126	0.514	0.459	0.459	0.414	0.467	0.916	0.965	1	0.992	0.991	0.33	0.341	0.376	0.337	0.379	0.336	0.38	0.346	0.321	0.339
NCI-H2170	0.32	0.28	0.299	0.271	0.301	0.546	0.698	0.672	0.576	0.559	0.383	0.331	0.438	0.403	0.417	0.358	0.403	0.358	0.435	0.299
NCI-H2228	0.381	0.36	0.398	0.236	0.392	0.756	0.589	0.622	0.548	0.661	0.518	0.723	1.12	0.844	0.486	0.655	0.797	0.74	0.749	0.615
NCI-H2347	0.742	0.646	0.668	0.825	0.685	0.507	0.591	0.597	0.621	0.53	0.381	0.389	0.408	0.422	0.444	0.392	0.417	0.413	0.444	0.436
